# Data reported in patent US8476455B2, “1-N-phenyl-amino-1h-imidazole derivatives and pharmaceutical compositions containing them” (Laboratoire Theramex, priority 2003, dated 2013).
# Experiments:
# human aromatase = target: T1, human aromatase (Homo sapiens, UniProt P11511); assay: Dual aromatase and steroid sulfatase activities in JEG-3 cells: aromatase readout; format: cell-based; conditions: footnote c: dual aromatase and sulfatase activity, nd: not detected, read-out: Aromatase activity IC50 (nM) ± S.E.M.
# T1 construct: The JEG-3 cell line, derived from a human placental choriocarcinoma, constitutively overexpresses human aromatase; endogenous in cells; host or cells: JEG-3 (human placental choriocarcinoma)
# T1 sequence (P11511 1-503): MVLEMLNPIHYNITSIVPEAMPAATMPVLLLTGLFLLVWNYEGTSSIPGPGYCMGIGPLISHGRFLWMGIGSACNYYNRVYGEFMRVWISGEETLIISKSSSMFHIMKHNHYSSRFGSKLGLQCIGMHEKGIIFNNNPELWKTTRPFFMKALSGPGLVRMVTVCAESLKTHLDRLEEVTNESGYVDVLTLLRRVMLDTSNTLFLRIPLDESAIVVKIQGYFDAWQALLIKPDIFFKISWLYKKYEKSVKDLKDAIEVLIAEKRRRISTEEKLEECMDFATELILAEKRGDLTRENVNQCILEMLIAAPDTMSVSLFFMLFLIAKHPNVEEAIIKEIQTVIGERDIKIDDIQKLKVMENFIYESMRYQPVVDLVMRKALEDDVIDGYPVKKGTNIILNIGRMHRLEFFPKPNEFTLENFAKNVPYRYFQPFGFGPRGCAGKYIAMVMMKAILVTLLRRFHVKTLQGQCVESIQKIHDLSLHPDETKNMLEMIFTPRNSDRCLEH
# Procedure: Assays were carried out with cells in logarithmic growth phase on 96-well microplates. 24 h before studies, cells were seeded in decomplemented fetal calf serum (dFCS) supplemented medium. The medium was removed 24 h later and cells were rinsed with PBS to eliminate any trace of dFCS. Then, ^3H-E1S was added in dFCS free medium, followed by test compounds at concentrations ranging from 10^−12 M to 10^−5 M. After 4 h of treatment, the medium was transferred into 96-deep-well microplates and centrifuged at 200×g for 10 min to pellet cells before toluene extraction. A fraction of the medium was used for toluene extraction in order to separate the conjugated substrate from non-conjugated products. The radioactivity in the toluene phase was measured by liquid scintillation counting. […] Finally, estrone sulfatase activity was expressed in pmoles of ^3H-E1+^3H-E2 formed/4 hours/mg DNA and estrone sulfatase inhibition as a percentage of control activity without inhibitor.
# (§1) In order to evaluate the inhibitory potency of DASI compounds in parallel on both human aromatase and steroid sulfatase activities, a new in vitro model was set up using JEG-3 cells. The experimental conditions of the steroid sulfatase model previously described was adopted with slight modifications: the presence of the two substrates ^3-HE1S and 1β-^3H-androstenedione into the medium and an incubation period of 2 hours. Results were expressed in pmoles of product formed (^3H-E1+^3H-E2 or ^3H2O)/2 hours/mg DNA (Table 1).
# human steroid sulfatase = target: T2, human steroid sulfatase (Homo sapiens, UniProt P08842); assay: Dual aromatase and steroid sulfatase activities in JEG-3 cells: sulfatase readout; format: cell-based; conditions: footnote c: dual aromatase and sulfatase activity, nd: not detected, read-out: Sulfatase activity IC50 (nM) ± S.E.M.
# T2 construct: The JEG-3 cell line is intrinsically very rich in human estrone sulfatase; endogenous in cells; host or cells: JEG-3 (human placental choriocarcinoma)
# T2 sequence (P08842 22-583): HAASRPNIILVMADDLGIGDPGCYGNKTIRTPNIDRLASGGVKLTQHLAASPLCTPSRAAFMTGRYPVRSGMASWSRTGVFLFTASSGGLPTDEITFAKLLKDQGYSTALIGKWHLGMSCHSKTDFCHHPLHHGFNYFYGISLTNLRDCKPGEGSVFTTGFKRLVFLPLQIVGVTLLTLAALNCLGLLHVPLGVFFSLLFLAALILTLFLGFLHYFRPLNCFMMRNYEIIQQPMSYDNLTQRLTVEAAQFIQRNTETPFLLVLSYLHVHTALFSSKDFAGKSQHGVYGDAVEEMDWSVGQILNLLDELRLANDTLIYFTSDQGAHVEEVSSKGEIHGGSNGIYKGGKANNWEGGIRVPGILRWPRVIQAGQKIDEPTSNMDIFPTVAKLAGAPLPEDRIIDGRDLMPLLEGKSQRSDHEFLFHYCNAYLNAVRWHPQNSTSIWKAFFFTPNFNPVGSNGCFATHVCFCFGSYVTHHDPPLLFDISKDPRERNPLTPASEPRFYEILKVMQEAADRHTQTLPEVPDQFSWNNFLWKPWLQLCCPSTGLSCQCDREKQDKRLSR
# Procedure: The JEG-3 cell line is intrinsically very rich in human estrone sulfatase and therefore is a useful biological system to evaluate new steroid sulfatase inhibitors in vitro. Assays were carried out with cells in logarithmic growth phase on 96-well microplates. 24 h before studies, cells were seeded in decomplemented fetal calf serum (dFCS) supplemented medium. The medium was removed 24 h later and cells were rinsed with PBS to eliminate any trace of dFCS. Then, ^3H-E1S was added in dFCS free medium, followed by test compounds at concentrations ranging from 10^−12 M to 10^−5 M. After 4 h of treatment, the medium was transferred into 96-deep-well microplates and centrifuged at 200×g for 10 min to pellet cells before toluene extraction. A fraction of the medium was used for toluene extraction in order to separate the conjugated substrate from non-conjugated products. The radioactivity in the toluene phase was measured by liquid scintillation counting. In parallel, after cell solubilization in a ethylenediamine tetraacetate solution, DNA content was measured by a standard fluorimetric method using the Hoechst 33258 fluorochrome. Finally, estrone sulfatase activity was expressed in pmoles of ^3H-E1+^3H-E2 formed/4 hours/mg DNA and estrone sulfatase inhibition as a percentage of control activity without inhibitor.
# as §1
# MCF7 cells = assay: ER+ human breast tumor tissue xenografted into nude rats; format: in vivo, nude rat (Rnu/Rnu); conditions: for Volume variations (expressed as % of E1S positive control group): oral 5 mg/kg/day, nude rats supplemented with E1S
# Procedure: MCF7 cells (ATCC), derived from human breast adenocarcinoma, were injected subcutaneously in ovariectomized athymic nude mice supplemented with a daily administration of subcutaneous estradiol. Xenograft volumes were determined weekly. After 8 weeks, tumor volumes reached 1000 mm3, providing 500 mg samples of estrogen responsive tissues for each animals. At this time each tumor was sliced and regrafted into naïve ovariectomized nude rat (Rnu/Rnu). Then animals were treated with estrone sulfate as precursor of estradiol by the steroid sulfatase pathway. When tumor volumes reached significant increase, distinct from the placebo, animals were randomized and separated in two groups. The first group was treated with Ex 45 and supplemented with daily administration of estrone sulfate. The second one was sham administered with the vehicle and supplemented with the same dosage of estrone sulfate. Ex 45 was orally administered at 5 mg/kg/day for 5 weeks. Xenografts were measured weekly by electronic Caliper and compared to the estrone sulfate group. (Table 5).
structure (smiles),measurement,setting,value
"Cl.N#Cc1ccc(N(Cc2ccc(OS(N)(=O)=O)c(Br)c2)n2ccnc2)cc1 [Ex 45, Sulfamic acid 2-bromo-4-{[N-(4-cyanophenyl)-N-(1H-imidazol-1yl)amino]methyl}phenyl ester, hydrochloride]",IC50,human aromatase,< 1 nM
same,IC50,human steroid sulfatase,~10 nM
same,Volume variations (expressed as % of E1S positive control group),MCF7 cells; Day 7,0%
same,Volume variations (expressed as % of E1S positive control group),MCF7 cells; Day 28,−26%
same,Volume variations (expressed as % of E1S positive control group),MCF7 cells; Day 35,−44%
same,Volume variations (expressed as % of E1S positive control group),MCF7 cells; Day 42,−39%
same,decrease in tumor volume,"MCF7 cells; at the end of the experiments, after five weeks of daily treatment, 5 mg/kg/day oral",40%
same,tumor volumes (in words),MCF7 cells; vs groups only treated with estrone sulfate (E1S),did not increased
